Test results published in patent US7205403B2, “8-Heteroaryl xanthine adenosine A2B receptor antagonists” (King Pharmaceuticals Research and Development, Inc., priority 2002, dated 2007).
Read-outs that look alike come from different tables or passages of the source.

Tests used:
[1] = target: T1, human A1 adenosine receptor (Homo sapiens, UniProt P30542); assay: [3H]DPCPX binding to human A1 receptors expressed in CHO cells
T1 construct: expressed in transfected cells; host or cells: CHO cells (membranes)
T1 sequence (P30542 1-326): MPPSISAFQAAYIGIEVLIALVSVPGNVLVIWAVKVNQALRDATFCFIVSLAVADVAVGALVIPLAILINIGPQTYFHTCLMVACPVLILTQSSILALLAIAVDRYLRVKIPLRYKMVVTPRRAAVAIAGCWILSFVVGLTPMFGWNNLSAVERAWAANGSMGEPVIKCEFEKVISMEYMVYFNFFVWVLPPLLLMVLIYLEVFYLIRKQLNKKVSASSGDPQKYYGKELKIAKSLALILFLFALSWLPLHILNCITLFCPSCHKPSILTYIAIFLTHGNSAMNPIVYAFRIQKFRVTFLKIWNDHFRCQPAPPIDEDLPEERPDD
Description: (§1) The cells were grown adherently and maintained in Dulbecco's modified Eagle's medium with nutrient mixture F12 without nucleosides at 37° C. in 5% CO2/95% air. The cells were washed with phosphate-buffered saline and scraped off flasks in ice cold hypotonic buffer ([…] Tris HCl, 2 mM EDTA, pH 7.4). The cell suspension was homogenized with a Polytron and the homogenate was centrifuged for 30 minutes at 48,000 g. The resultant membrane pellet was re-suspended in 50 mM Tris HCl buffer at pH 7.4 for A1 adenosine receptors; in 50 mM Tris HCl 10 mM MgCl, at pH 7.4 for A2A adenosine receptors; in 50 mM Tris HCl, 10 mM MgCl2, 1 mM EDTA, at pH 7.4 for A3 adenosine receptors and were utilized for binding assays.
Displacement experiments were performed for 120 minutes at 25° C. in 200 μl of buffer containing 1 nM ^3H]-DPCPX 20 μl of diluted membranes (50 μg of protein/assay) and at least 6 to 8 different concentrations of examined compounds.
(§2) The filter bound radioactivity was counted on Top Count (efficiency 57%) with Micro-Scint 20.
(§3) The filter bound radioactivity was counted on a Top Count brand Microplate Scintillation Counter (efficiency 57%) with Micro-Scint 20. […] Inhibitory binding constant. […] Results and Discussion

[2] = target: T2, human A3 adenosine receptor (Homo sapiens, UniProt P0DMS8); assay: [3H]MRE3008F20 binding to human A3 receptors expressed in CHO cells
T2 construct: expressed in transfected cells; host or cells: CHO cells (membranes)
T2 sequence (P0DMS8 1-318): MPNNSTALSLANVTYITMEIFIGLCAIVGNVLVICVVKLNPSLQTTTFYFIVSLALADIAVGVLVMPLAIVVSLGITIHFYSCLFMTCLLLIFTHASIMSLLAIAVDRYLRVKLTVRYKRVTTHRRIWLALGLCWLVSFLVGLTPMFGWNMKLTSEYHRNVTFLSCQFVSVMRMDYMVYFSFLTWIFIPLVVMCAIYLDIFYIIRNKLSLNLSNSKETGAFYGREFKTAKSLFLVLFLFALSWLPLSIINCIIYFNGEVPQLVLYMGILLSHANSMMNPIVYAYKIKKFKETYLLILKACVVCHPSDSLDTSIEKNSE
Description: as §1
Binding of [^3H]-MRE3008-F20 to CHO cells transfected with the human recombinant A3 adenosine receptors was performed according to Varani et al., 2000. Competition experiments were carried out in duplicate in a final volume of 250 μl in test tubes containing 1 nM [^3H]-MRE3008-F20, 50 mM Tris HCl buffer, […] MgCl2, pH 7.4 and 100 μl of diluted membranes (50 μg of protein/assay) and at least 6–8 different concentrations of examined ligands for 120 minutes at 4° C.
as §2, §3

[3] = target: T3, human A2A adenosine receptor (Homo sapiens, UniProt P29274); assay: [3H]ZM241385 binding to human A2A receptors expressed in CHO cells; settings: read-out: Ki, [3H]ZM241385 binding to human A2A receptors expressed in CHO cells
T3 construct: expressed in transfected cells; host or cells: CHO cells (membranes)
Description: as §1, §2, §3

[4] = target: T4, human A2B adenosine receptor (Homo sapiens, UniProt P29275); assay: [3H]DPCPX binding to human A2B receptors expressed in HEK293 cells; design: host or cells: HEK 293 cells (membranes); settings: geometric mean (95% confidence interval); >1000 = no appreciable binding; read-out: Ki, [3H]DPCPX binding to human A2B receptors expressed in HEK293 cells
T4 sequence (P29275 1-332): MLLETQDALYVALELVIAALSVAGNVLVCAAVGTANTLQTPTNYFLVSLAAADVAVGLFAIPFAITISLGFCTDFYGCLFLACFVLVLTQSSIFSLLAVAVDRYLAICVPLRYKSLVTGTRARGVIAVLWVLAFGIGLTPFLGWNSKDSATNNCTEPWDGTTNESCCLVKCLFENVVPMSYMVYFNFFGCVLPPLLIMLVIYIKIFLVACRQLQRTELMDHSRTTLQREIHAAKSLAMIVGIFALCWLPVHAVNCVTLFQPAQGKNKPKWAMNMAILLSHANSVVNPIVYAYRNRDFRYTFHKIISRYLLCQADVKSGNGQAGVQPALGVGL
Description: HEK 293 cells transfected with the human recombinant A2B adenosine receptor were obtained from Receptor Biology, Inc. (Beltsville, Md. USA).
Binding of 1 [^3H]-DPCPX to HEK 293 cells transfected with the human recombinant A2B adenosine receptors was performed according to the method described by Varani et al., 2000. In particular, assays were carried out for 60 minutes at 25° C. in 100 μl of […] Tris HCl buffer, […] MgCl2, 1 mM EDTA, 0.1 mM benzamidine pH 7.4, 2 IU/ml adenosine deaminase containing 40 nM [^3H]-DPCPX, diluted membranes (20 μg of protein/assay) and at least 6–8 different concentration of tested compounds.
as §2, §3

[5] = geometric mean (95% confidence interval), >1000 = no appreciable binding

T3 sequence (P29274 whole entry): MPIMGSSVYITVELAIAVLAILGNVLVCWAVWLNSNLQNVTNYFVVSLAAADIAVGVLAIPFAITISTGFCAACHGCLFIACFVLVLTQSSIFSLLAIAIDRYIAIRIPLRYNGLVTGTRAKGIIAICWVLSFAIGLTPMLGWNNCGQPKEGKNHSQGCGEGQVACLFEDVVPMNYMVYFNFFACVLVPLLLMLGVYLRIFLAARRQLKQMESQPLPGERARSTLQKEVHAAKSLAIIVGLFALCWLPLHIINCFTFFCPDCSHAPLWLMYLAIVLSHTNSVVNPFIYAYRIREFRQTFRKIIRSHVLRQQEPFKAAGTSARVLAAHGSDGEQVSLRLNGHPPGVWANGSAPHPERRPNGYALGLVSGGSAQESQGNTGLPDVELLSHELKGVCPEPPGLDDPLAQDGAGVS

Compound | Ki [1, 5] | Ki [2] | Ki [3] | Ki [4] | Ki [1] | Ki [2, 5] | Ki [3, 5]
CCCn1c(=O)c2[nH]c(-c3cc(NC(=O)Cc4ccc(F)cc4)nn3C)nc2n(CCC)c1=O [AS22, N-[5-(2,6-dioxo-1,3-dipropyl-2,3,6,9-tetrahydro-1H-purin-8-yl)-1-methyl-1H-pyrazol-3-yl]-2-(4-fluorophenyl)acetamide] | 200 nM | > 1000 nM | > 1000 nM | 88 nM | – | – | –
CCCn1c(=O)c2[nH]c(-c3cc(NC(=O)Cc4ccc(OC)cc4)nn3C)nc2n(CCC)c1=O [AS23, 2-(4-methoxyphenyl)-N-[5-(2,6-dioxo-1,3-dipropyl-2,3,6,9-tetrahydro-1H-purin-8-yl)-1-methyl-1H-pyrazol-3-yl]acetamide] | 850 nM | > 1000 nM | > 1000 nM | 100 nM | – | – | –
CCCn1c(=O)c2[nH]c(-c3cc(NC(=O)Cc4cccc(Cl)c4)nn3C)nc2n(CCC)c1=O [AS24, N-[5-(2,6-dioxo-1,3-dipropyl-2,3,6,9-tetrahydro-1H-purin-8-yl)-1-methyl-1H-pyrazol-3-yl]-2-(3-chlorophenyl)acetamide] | 4480 nM | > 1000 nM | > 1000 nM | 160 nM | – | – | –
CCCn1c(=O)c2[nH]c(-c3cc(NC(=O)Cc4cccc(F)c4)nn3C)nc2n(CCC)c1=O [AS25, N-[5-(2,6-dioxo-1,3-dipropyl-2,3,6,9-tetrahydro-1H-purin-8-yl)-1-methyl-1H-pyrazol-3-yl]-2-(3-fluorophenyl)acetamide] | 3230 nM | > 1000 nM | > 1000 nM | 50 nM | – | – | –
CCCn1c(=O)c2[nH]c(-c3cc(NC(=O)Cc4ccc(OCc5cccc(C(F)(F)F)c5)cc4)nn3C)nc2n(CCC)c1=O [AS30, N-[5-(2,6-dioxo-1,3-dipropyl-2,3,6,9-tetrahydro-1H-purin-8-yl)-1-methyl-1H-pyrazol-3-yl]-2-(4-{[3-(trifluoromethyl)benzyl]oxy}phenyl)acetamide] | 100 nM | > 1000 nM | > 1000 nM | 90 nM | – | – | –
CCCn1c(=O)c2[nH]c(-c3cc(NC(=O)Cc4ccc(OCc5ccc([N+](=O)[O-])cc5)cc4)nn3C)nc2n(CCC)c1=O [AS31, N-[5-(2,6-dioxo-1,3-dipropyl-2,3,6,9-tetrahydro-1H-purin-8-yl)-1-methyl-1H-pyrazol-3-yl]-2-(4-{4-nitro-benzyloxy}phenyl)acetamide] | 163 nM | > 1000 nM | > 1000 nM | 111 nM | – | – | –
CCCn1c(=O)c2[nH]c(-c3cc(NC(=O)Cc4ccc(C(F)(F)F)cc4)nn3C)nc2n(CCC)c1=O [AS32, N-[5-(2,6-dioxo-1,3-dipropyl-2,3,6,9-tetrahydro-1H-purin-8-yl)-1-methyl-1H-pyrazol-3-yl]-2-[4-(trifluoromethyl)phenyl]acetamide] | 746 nM | > 1000 nM | > 1000 nM | 190 nM | – | – | –
CCCn1c(=O)c2c(nc(/C=C/c3cc(C(=O)OCC)n(C)c3)n2C)n(CCC)c1=O [AS33, ethyl 4-[(E)-2-(7-methyl-1,3-dipropyl-2,6-dioxo-2,3,6,7-tetrahydro-1H-purin-8-yl)vinyl]-1-methyl-1H-pyrrole-2-carboxylate] | – | > 1000 nM | > 1000 nM | > 1000 nM | > 1000 nM | – | –
Cn1nc(N)cc1-c1nc2c([nH]1)c(=O)n(C)c(=O)n2C [AS38, 8-(3-amino-1-methyl-1H-pyrazol-5-yl)-1,3-dimethyl-3,7-dihydro-1H-purine-2,6-dione] | – | > 1000 nM | > 1000 nM | 175 nM | > 1000 nM | – | –
CCCn1c(=O)c2[nH]c(-c3cc(NC(=O)Cc4ccc(F)c(F)c4)nn3C)nc2n(CCC)c1=O [AS43, N-[5-(2,6-dioxo-1,3-dipropyl-2,3,6,9-tetrahydro-1H-purin-8-yl)-1-methyl-1H-pyrazol-3-yl]-2-(3,4-difluorophenyl)acetamide] | 1900 nM | > 1000 nM | > 1000 nM | 130 nM | – | – | –
CCCn1c(=O)c2[nH]c(-c3cc(NC(=O)Nc4ccc(OC)cc4)nn3C)nc2n(CCC)c1=O [AS49, 1-[5-(2,6-Dioxo-1,3-dipropyl-2,3,6,7-tetrahydro-1H-purin-8-yl)-1-methyl-1H-pyrazol-3-yl]-3-(4-methoxy-phenyl)-urea] | 1440 nM | > 1000 nM | > 1000 nM | 81 nM | – | – | –
CCCn1c(=O)c2[nH]c(-c3cc(NC(=O)Nc4ccc(N(C)C)cc4)nn3C)nc2n(CCC)c1=O [AS53, N-[4-(dimethylamino)phenyl]-N'-[5-(2,6-dioxo-1,3-dipropyl-2,3,6,7-tetrahydro-1H-purin-8-yl)-1-methyl-1H-pyrazol-3-yl]urea] | 2410 nM | > 1000 nM | > 1000 nM | 59 nM | – | – | –
CCCn1c(=O)c2[nH]c(-c3cc(NC(=O)Nc4cccc(OC)c4)nn3C)nc2n(CCC)c1=O [AS55, N-[5-(2,6-dioxo-1,3-dipropyl-2,3,6,7-tetrahydro-1H-purin-8-yl)-1-methyl-1H-pyrazol-3-yl]-N'-(3-methoxyphenyl)urea] | 1990 nM | > 1000 nM | > 1000 nM | 90 nM | – | – | –
CCCn1c(=O)c2[nH]c(-c3cc(NC(=O)Cc4ccc(OCc5ccccc5)c(OC)c4)nn3C)nc2n(CCC)c1=O [AS56, 2-[4-(benzyloxy)-3-methoxyphenyl]-N-[5-(2,6-dioxo-1,3-dipropyl-2,3,6,9-tetrahydro-1H-purin-8-yl)-1-methyl-1H-pyrazol-3-yl]acetamide] | – | > 1000 nM | 2430 nM | 100 nM | 1790 nM | – | –
CCCn1c(=O)c2[nH]c(-c3cc(OCC(=O)Nc4ccc(C)cc4)nn3C)nc2n(CCC)c1=O [AS59, N-(4-methylphenyl)-2-{[5-(1,3-dipropyl-2,6-dioxo-2,3,6,7-tetrahydro-1H-purin-8-yl)-1-methyl-1H-pyrazol-3-yl]oxy}acetamide] | > 1000 nM | – | – | 1010 nM | – | > 1000 nM | > 1000 nM
CCCn1c(=O)c2nc(-c3cc(OCC(=O)Nc4ccc(Br)cc4)n(C)n3)[nH]c2n(CCC)c1=O [AS60, N-(4-bromophenyl)-2-{[3-(2,6-dioxo-1,3-dipropyl-2,3,6,9-tetrahydro-1H-purin-8-yl)-1-methyl-1H-pyrazol-5-yl]oxy}acetamide] | 168 nM | > 1000 nM | > 1000 nM | 93 nM | – | – | –
